From patent US20250257086A1, “EGFR DEGRADATION AGENT” (Beijing Tide Pharmaceutical Co., Ltd., priority 2022, published 2025)

Biological target: Ba/F3 (EGFR^L858R/T790M/C797S) cells (Homo sapiens, UniProt P00533, T790M/C797S/L858R, cells depend on it)
Experiment: Antiproliferative activity on Ba/F3 (EGFR L858R/T790M/C797S) cells (CTG)
Type: cell-based
Conditions: 72h incubation, CTG luminescence, read-out: IC50 (nM), antiproliferative activity
Protocol: 30 nL of the compound dilution was added to a 384-well plate by Echo (Labcyte, Echo550).
The percent inhibition rate (% inhibition) was calculated by the following formula
[formula] • LUMcmpd: Luminescence value of assay compound. • LUMpositive: Average LUM value of positive drug with a concentration of 10 μM. • LUMvehicle: Average LUM value of negative control group without drug treatment.
The nonlinear regression curve (dose response-variable slope) between the value of inhibition rate (%) and the logarithm of compound concentration was fitted with graphpad prism 8.0, the effect dose curve of compound was drawn, and the IC50 value was calculated.
Y=Bottom+(Top−Bottom)/(1+10^((Log IC50−X)*HillSlope)) • X-axis: logarithm of compound concentration; Y axis: inhibition rate (% inhibition).

Ba/F3 (EGFR^L858R/T790M/C797S) cells, sequence (P00533 whole entry T790M/C797S/L858R): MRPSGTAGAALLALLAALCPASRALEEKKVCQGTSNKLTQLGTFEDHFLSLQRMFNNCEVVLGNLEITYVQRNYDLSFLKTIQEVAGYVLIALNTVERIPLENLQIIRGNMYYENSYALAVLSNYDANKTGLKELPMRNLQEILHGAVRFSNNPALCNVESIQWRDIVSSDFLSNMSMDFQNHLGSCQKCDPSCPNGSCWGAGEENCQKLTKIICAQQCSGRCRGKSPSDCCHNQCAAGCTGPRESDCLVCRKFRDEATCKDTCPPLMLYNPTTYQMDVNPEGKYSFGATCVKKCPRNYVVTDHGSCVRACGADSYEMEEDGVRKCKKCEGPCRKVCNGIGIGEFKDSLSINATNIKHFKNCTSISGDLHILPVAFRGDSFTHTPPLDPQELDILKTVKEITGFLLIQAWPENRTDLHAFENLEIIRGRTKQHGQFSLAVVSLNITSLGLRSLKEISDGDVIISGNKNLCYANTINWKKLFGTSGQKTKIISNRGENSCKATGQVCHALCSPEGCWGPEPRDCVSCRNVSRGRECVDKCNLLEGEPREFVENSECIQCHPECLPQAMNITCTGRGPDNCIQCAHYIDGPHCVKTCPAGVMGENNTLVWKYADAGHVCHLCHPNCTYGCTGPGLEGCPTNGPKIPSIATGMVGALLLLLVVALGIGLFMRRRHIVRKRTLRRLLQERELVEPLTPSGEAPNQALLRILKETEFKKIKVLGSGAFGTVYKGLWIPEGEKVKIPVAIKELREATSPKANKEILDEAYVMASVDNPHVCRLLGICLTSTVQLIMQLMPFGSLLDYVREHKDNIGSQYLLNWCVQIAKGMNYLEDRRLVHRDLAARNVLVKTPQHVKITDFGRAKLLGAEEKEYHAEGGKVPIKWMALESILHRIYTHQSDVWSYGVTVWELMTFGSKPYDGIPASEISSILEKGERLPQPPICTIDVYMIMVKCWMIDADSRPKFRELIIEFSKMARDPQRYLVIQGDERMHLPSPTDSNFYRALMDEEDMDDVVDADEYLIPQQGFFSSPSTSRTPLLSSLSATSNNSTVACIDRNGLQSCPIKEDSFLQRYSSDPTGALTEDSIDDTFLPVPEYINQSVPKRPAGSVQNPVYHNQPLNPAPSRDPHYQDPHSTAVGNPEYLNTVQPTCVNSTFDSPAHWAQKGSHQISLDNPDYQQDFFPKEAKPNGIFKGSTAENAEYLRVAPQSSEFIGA

SMILES | GI50
COc1cc(N2CCC(N3CCN(CCCCCC#Cc4cccc5c4CN(C4CCC(=O)NC4=O)C5=O)CC3)CC2)c(NC(=O)/C=C/CN(C)C)cc1Nc1ncc(Br)c(Nc2ccccc2P(C)(C)=O)n1 (stereo not drawn) [Compound D563, N-(5-((5-bromo-4-((2-(dimethylphosphoryl)phenyl)amino)pyrimidin-2-yl)amino)-2-(4-(4-(7-(2-(2,6-dioxopiperidin-3-yl)-1-oxoisoindolin-4-yl)hept-6-yn-1-yl)piperazin-1-yl)piperidin-1-yl)-4-dimethoxyphenyl)-4-(dimethylamino)but-2-enamide] | 306 nM
CC#CC(=O)Nc1cc(Nc2ncc(Cl)c(Nc3ccccc3P(C)(C)=O)n2)c(OC)cc1N1CCC(N2CCN(CCCCCC#Cc3cccc4c3CN(C3CCC(=O)NC3=O)C4=O)CC2)CC1 (stereo not drawn) [Compound D560, N-(5-((5-chloro-4-((2-(dimethylphosphoryl)phenyl)amino)pyrimidin-2-yl)amino)-2-(4-(4-(7-(2-(2,6-dioxopiperidin-3-yl)-1-oxoisoindolin-4-yl)hept-6-yn-1-yl)piperazin-1-yl)piperidin-1-yl)-4-methoxyphenyl)but-2-ynamide] | 112 nM
CC#CC(=O)Nc1cc(Nc2ncc(Cl)c(Nc3ccccc3P(C)(C)=O)n2)c(OC)cc1N1CCC(N2CCN(CCCCC#Cc3cccc4c3CN(C3CCC(=O)NC3=O)C4=O)CC2)CC1 (stereo not drawn) [Compound D559, N-(5-((5-chloro-4-((2-(dimethylphosphoryl)phenyl)amino)pyrimidin-2-yl)amino)-2-(4-(4-(6-(2-(2,6-dioxopiperidin-3-yl)-1-oxoisoindolin-4-yl)hex-5-yn-1-yl)piperazin-1-yl)piperidin-1-yl)-4-methoxyphenyl)but-2-ynamide] | 50.4 nM
COc1cc(N2CCC(N3CCN(CCCC#Cc4cccc5c4CN(C4CCC(=O)NC4=O)C5=O)CC3)CC2)c(NC(=O)/C=C/C(F)(F)F)cc1Nc1ncc(Br)c(Nc2ccccc2P(C)(C)=O)n1 (stereo not drawn) [Compound D603, (E)-N-(5-((5-bromo-4-((2-(dimethylphosphoryl)phenyl)amino)pyrimidin-2-yl)amino)-2-(4-(4-(5-(2-(2,6-dioxopiperidin-3-yl)-1-oxoisoindolin-4-yl)pent-4-yn-1-yl)piperazin-1-yl)piperidin-1-yl)-4-methoxyphenyl)-4,4,4-trifluorobut-2-enamide] | 37.1 nM
C=CC(=O)Nc1cc(Nc2ncc(Br)c(Nc3ccccc3P(C)(C)=O)n2)c(OC)cc1N1CCC(N2CCN(CCCCC#Cc3cccc4c3CN(C3CCC(=O)NC3=O)C4=O)CC2)CC1 (stereo not drawn) [Compound D479, N-(5-((5-bromo-4-((2-(dimethylphosphoryl)phenyl)amino)pyrimidin-2-yl)amino)-2-(4-(4-(6-(2-(2,6-dioxopiperidin-3-yl)-1-oxoisoindolin-4-yl)hex-5-yn-1-yl)piperazin-1-yl)piperidin-1-yl)-4-methoxyphenyl)acrylamide] | 86.8 nM
COc1cc(N2CCC(N3CCN(CCCC#Cc4cccc5c4CN(C4CCC(=O)NC4=O)C5=O)CC3)CC2)c(NC(=O)/C=C/CN2CCCCC2)cc1Nc1ncc(Cl)c(Nc2ccccc2P(C)(C)=O)n1 (stereo not drawn) [Compound D584, (E)-N-(5-((5-chloro-4-((2-(dimethylphosphoryl)phenyl)amino)pyrimidin-2-yl)amino)-2-(4-(4-(5-(2-(2,6-dioxopiperidin-3-yl)-1-oxoisoindolin-4-yl)pent-4-yn-1-yl)piperazin-1-yl)piperidin-1-yl)-4-methoxyphenyl)-4-(piperidin-1-yl)but-2-enamide] | 216 nM
C=C(F)C(=O)Nc1cc(Nc2ncc(Cl)c(Nc3ccccc3P(C)(C)=O)n2)c(OC)cc1N1CCC(N2CCN(CCCCC#Cc3cccc4c3CN(C3CCC(=O)NC3=O)C4=O)CC2)CC1 (stereo not drawn) [Compound D553, N-(5-((5-chloro-4-((2-(dimethylphosphoryl)phenyl)amino)pyrimidin-2-yl)amino)-2-(4-(4-(6-(2-(2,6-dioxopiperidin-3-yl)-1-oxoisoindolin-4-yl)hex-5-yn-1-yl)piperazin-1-yl)piperidin-1-yl)-4-methoxyphenyl)-2-fluoroacrylamide] | 49.5 nM
CC#CC(=O)Nc1cc(Nc2ncc(Cl)c(Nc3ccccc3P(C)(C)=O)n2)c(OC)cc1N1CCC(N2CCN(CCCCC#Cc3ccc4c(c3)CN(C3CCC(=O)NC3=O)C4=O)CC2)CC1 (stereo not drawn) [Compound D602, N-(5-((5-chloro-4-((2-(dimethylphosphoryl)phenyl)amino)pyrimidin-2-yl)amino)-2-(4-(4-(6-(2-(2,6-dioxopiperidin-3-yl)-1-oxoisoindolin-5-yl)hex-5-yn-1-yl)piperazin-1-yl)piperidin-1-yl)-4-methoxyphenyl)but-2-ynamide] | 57.3 nM
COc1cc(N2CCC(N3CCN(CCCC#Cc4cccc5c4CN(C4CCC(=O)NC4=O)C5=O)CC3)CC2)c(NC(=O)C#CCO)cc1Nc1ncc(Cl)c(Nc2ccccc2P(C)(C)=O)n1 (stereo not drawn) [Compound D628, N-(5-((5-chloro-4-((2-(dimethylphosphoryl)phenyl)amino)pyrimidin-2-yl)amino)-2-(4-(4-(5-(2-(2,6-dioxopiperidin-3-yl)-1-oxoisoindolin-4-yl)pent-4-yn-1-yl)piperazin-1-yl)piperidin-1-yl)-4-methoxyphenyl)-4-hydroxybut-2-ynamide] | 325 nM

Stronger by GI50, values ahead:

GI50 | SMILES
16.3 nM | CP(C)(=O)c1ccccc1Nc1nc(Nc2cc(NC(=O)/C=C/C(F)(F)F)c(N3CCC(N4CCN(CCCC#Cc5cccc6c5CN(C5CCC(=O)NC5=O)C6=O)CC4)CC3)cc2OCC(F)(F)F)ncc1Br (stereo not drawn) [Compound D847, (E)-N-(5-((5-bromo-4-((2-(dimethylphosphoryl)phenyl)amino)pyrimidin-2-yl)amino)-2-(4-(4-(5-(2-(2,6-dioxopiperidin-3-yl)-1-oxoisoindolin-4-yl)pent-4-yn-1-yl)piperazin-1-yl)piperidin-1-yl)-4-(2,2,2-trifluoroethoxy)phenyl)-4,4,4-trifluorobut-2-enamide]
12.3 nM | C=C(F)C(=O)Nc1cc(Nc2ncc(Br)c(Nc3ccc4nccnc4c3NS(C)(=O)=O)n2)c(OC)cc1N1CCC(N2CCN(CCCC#Cc3cccc4c3CN(C3CCC(=O)NC3=O)C4=O)CC2)CC1 (stereo not drawn) [Compound D933]
14.5 nM | C=C(F)C(=O)Nc1cc(Nc2ncc(Cl)c(Nc3ccc4nccnc4c3P(C)(C)=O)n2)c(OC)cc1N1CCC(N2CCN(CCCC#Cc3cccc4c3CN(C3CCC(=O)NC3=O)C4=O)CC2)CC1 (stereo not drawn) [Compound D671, N-(5-((5-chloro-4-((5-(dimethylphosphoryl)quinoxalin-6-yl)amino)pyrimidin-2-yl)amino)-2-(4-(4-(5-(2-(2,6-dioxopiperidin-3-yl)-1-oxoisoindolin-4-yl)pent-4-yn-1-yl)piperazin-1-yl)piperidin-1-yl)-4-methoxyphenyl)-2-fluoroacrylamide]
11.9 nM | C=C(F)C(=O)Nc1cc(Nc2ncc(Br)c(Nc3ccccc3P(C)(C)=O)n2)c(OCC(F)(F)F)cc1N1CCC(N2CCN(CCCC#Cc3cccc4c3CN(C3CCC(=O)NC3=O)C4=O)CC2)CC1 (stereo not drawn) [Compound D846, N-(5-((5-bromo-4-((2-(dimethylphosphoryl)phenyl)amino)pyrimidin-2-yl)amino)-2-(4-(4-(5-(2-(2,6-dioxopiperidin-3-yl)-1-oxoisoindolin-4-yl)pent-4-yn-1-yl)piperazin-1-yl)piperidin-1-yl)-4-(2,2,2-trifluoroethoxy)phenyl)-2-fluoroacrylamide]
21.2 nM | CCCC#CC(=O)Nc1cc(Nc2ncc(Cl)c(Nc3ccccc3P(C)(C)=O)n2)ccc1N1CCC(N2CCN(CCCC#Cc3cccc4c3CN(C3CCC(=O)NC3=O)C4=O)CC2)CC1 (stereo not drawn) [Compound D668, N-(5-((5-chloro-4-((2-(dimethylphosphoryl)phenyl)amino)pyrimidin-2-yl)amino)-2-(4-(4-(5-(2-(2,6-dioxopiperidin-3-yl)-1-oxoisoindolin-4-yl)pent-4-yn-1-yl)piperazin-1-yl)piperidin-1-yl)phenyl)hex-2-ynamide]
24.1 nM | COc1cc(N2CCC(N3CCN(CCCC#Cc4cccc5c4CN(C4CCC(=O)NC4=O)C5=O)CC3)CC2)c(NC(=O)/C=C/C(F)(F)F)cc1Nc1ncc(Cl)c(Nc2ccc3c(c2P(C)(C)=O)OCCO3)n1 (stereo not drawn) [Compound D684]
27.4 nM | CCCC#CC(=O)Nc1cc(Nc2ncc(Br)c(Nc3ccccc3P(C)(C)=O)n2)c(OCC(F)(F)F)cc1N1CCC(N2CCN(CCCC#Cc3cccc4c3CN(C3CCC(=O)NC3=O)C4=O)CC2)CC1 (stereo not drawn) [Compound D856, N-(5-((5-bromo-4-((2-(dimethylphosphoryl)phenyl)amino)pyrimidin-2-yl)amino)-2-(4-(4-(5-(2-(2,6-dioxopiperidin-3-yl)-1-oxoisoindolin-4-yl)pent-4-yn-1-yl)piperazin-1-yl)piperidin-1-yl)-4-(2,2,2-trifluoroethoxy)phenyl)hex-2-ynamide]
14.6 nM | C=C(F)C(=O)Nc1cc(Nc2ncc(Cl)c(Nc3ccc4c(c3P(C)(C)=O)OCCO4)n2)c(OC)cc1N1CCC(N2CCN(CCCC#Cc3cccc4c3CN(C3CCC(=O)NC3=O)C4=O)CC2)CC1 (stereo not drawn) [Compound D682]
10.2 nM | COc1cc(N2CCC(N3CCN(CCCC#Cc4cccc5c4CN(C4CCC(=O)NC4=O)C5=O)CC3)CC2)c(C)cc1Nc1ncc(Br)c(Nc2ccc3nccnc3c2NS(C)(=O)=O)n1 (stereo not drawn) [Compound D741, N-(6-((5-bromo-2-((4-(4-(4-(5-(2-(2,6-dioxopiperidin-3-yl)-1-oxoisoindolin-4-yl)pent-4-yn-1-yl)piperazin-1-yl)piperidin-1-yl)-2-methoxy-5-methylphenyl)amino)pyrimidin-4-yl)amino)quinoxalin-5-yl)methanesulfonamide]
